From ChEMBL document CHEMBL3632576, “Tacrine-Trolox Hybrids: A Novel Class of Centrally Active, Nonhepatotoxic Multi-Target-Directed Ligands Exerting Anticholinesterase and Antioxidant Activities with Low In Vivo Toxicity” (J Med Chem, 2015)
The source made the active and inactive calls. No cut-off for these calls is given here.

Key:
Liver microsome [1] = assay: Retention time of the compound in human liver microsomes by LC-MS/MS analysis; format: ADME
Cholinesterase = Cholinesterase (Homo sapiens, UniProt P06276)
Sequence of Cholinesterase (P06276 whole entry): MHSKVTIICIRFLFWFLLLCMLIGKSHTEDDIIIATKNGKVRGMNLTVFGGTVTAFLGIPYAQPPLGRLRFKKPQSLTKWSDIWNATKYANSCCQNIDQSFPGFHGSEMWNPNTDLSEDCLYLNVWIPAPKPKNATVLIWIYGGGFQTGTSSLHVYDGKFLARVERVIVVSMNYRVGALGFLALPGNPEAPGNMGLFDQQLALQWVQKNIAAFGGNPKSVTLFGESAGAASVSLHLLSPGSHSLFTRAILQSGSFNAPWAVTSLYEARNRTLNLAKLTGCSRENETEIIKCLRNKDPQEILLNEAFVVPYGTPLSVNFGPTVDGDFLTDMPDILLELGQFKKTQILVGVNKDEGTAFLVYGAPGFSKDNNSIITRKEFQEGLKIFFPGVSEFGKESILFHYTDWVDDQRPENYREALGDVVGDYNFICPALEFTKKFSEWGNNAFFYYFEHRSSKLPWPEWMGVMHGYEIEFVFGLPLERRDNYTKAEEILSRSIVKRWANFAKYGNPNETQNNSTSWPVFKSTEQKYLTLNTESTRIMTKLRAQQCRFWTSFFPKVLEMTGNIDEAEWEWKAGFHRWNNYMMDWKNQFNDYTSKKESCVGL
Description: Inhibition of human plasmatic BChE using butyrylthiocholine as substrate preincubated for 5 mins followed by substrate addition measured every 2 mins by Ellman's method

Acetylcholinesterase [2] = molecular target: T1, Acetylcholinesterase (Homo sapiens, UniProt P22303)
T1 sequence (P22303 whole entry): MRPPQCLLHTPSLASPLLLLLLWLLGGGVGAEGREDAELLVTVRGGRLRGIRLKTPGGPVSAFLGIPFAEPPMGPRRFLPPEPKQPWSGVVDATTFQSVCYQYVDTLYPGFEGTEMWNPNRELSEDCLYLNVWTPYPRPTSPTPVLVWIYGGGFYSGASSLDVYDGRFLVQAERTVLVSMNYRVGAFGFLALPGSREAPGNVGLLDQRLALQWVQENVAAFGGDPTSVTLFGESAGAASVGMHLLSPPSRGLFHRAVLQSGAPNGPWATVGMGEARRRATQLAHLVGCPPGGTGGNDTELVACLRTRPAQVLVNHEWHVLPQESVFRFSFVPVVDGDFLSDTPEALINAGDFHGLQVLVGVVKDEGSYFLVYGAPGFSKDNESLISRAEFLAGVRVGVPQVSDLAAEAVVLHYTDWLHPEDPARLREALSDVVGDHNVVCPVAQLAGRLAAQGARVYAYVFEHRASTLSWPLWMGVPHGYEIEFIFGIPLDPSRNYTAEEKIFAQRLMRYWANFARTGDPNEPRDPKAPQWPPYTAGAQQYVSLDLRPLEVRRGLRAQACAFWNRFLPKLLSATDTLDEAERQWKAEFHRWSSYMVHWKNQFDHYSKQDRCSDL
Description: Inhibition of human recombinant AChE using acetylthiocholine as substrate preincubated for 5 mins followed by substrate addition measured every 2 mins by Ellman's method

[3] = Metabolic stability in human liver microsomes assessed as compound remaining at 1 ug/ml after 1 hr by LC-MS/MS analysis; format: ADME; conditions: read-out: Stability
Acetylcholinesterase [4] = molecular target: T1, Acetylcholinesterase; conditions: 100 to 562 nM
[5] = Acute toxicity in im dosed albino Wistar rat assessed as mortality measured within 48 hrs; format: organism-based; conditions: in vivo
[6] = Metabolic stability in human liver microsomes assessed as compound remaining at 20 ug/ml after 1 hr by LC-MS/MS analysis; format: ADME; conditions: read-out: Stability
Acetylcholinesterase [7] = molecular target: T1, Acetylcholinesterase; assay: Competitive inhibition of human recombinant AChE using acetylthiocholine as substrate preincubated for 5 mins followed by substrate addition measured every 2 mins by Lineweaver-Burk plot analysis
HepG2 [8] = assay: Hepatotoxicity in human HepG2 cells assessed as cell viability at 0.5 uM after 24 hrs by MTT assay; format: toxicity, cell-based; conditions: hepg2, 24 h
[9] = Metabolic stability in human liver microsomes assessed as compound remaining at 50 ug/ml after 1 hr by LC-MS/MS analysis; format: ADME; conditions: read-out: Stability
[10] = Permeability of the compound at 50 to 100 uM after 18 hrs by PAMPA; format: physicochemical; conditions: read-out: permeability
Liver microsome [11] = assay: Drug metabolism in human liver microsomes assessed as decrease in 8-(6-chloro-1,2,3,4-tetrahydroacridin-9-ylamino)octanoic acid AUC after 1 hr by extracted ion chromatogram analysis; format: ADME
in vitro = conditions: human, HepG2 cells
Description: Hepatotoxicity in human HepG2 cells assessed as cell viability after 24 hrs by MTT assay

HepG2 [12] = assay: Hepatotoxicity in human HepG2 cells assessed as cell viability at 512 uM after 24 hrs by MTT assay; format: toxicity, cell-based; conditions: hepg2, 24 h
HepG2 [13] = assay: Hepatotoxicity in human HepG2 cells assessed as cell viability at 2 uM after 24 hrs by MTT assay; format: toxicity, cell-based; conditions: hepg2, 24 h

Compound	IC50 (Cholinesterase) [µM]	IC50 (Acetylcholinesterase [2]) [µM]	EC50 [µM]	other results
CC1=C(C)C(=O)C(CCC(C)(O)C(=O)NCCCCCCCCNc2c3c(nc4cc(Cl)ccc24)CCCC3)=C(C)C1=O (stereo not given)	–	–	–	Retention_time (Liver microsome [1]): 7.35 min
COc1ccc2nc3c(c(NCCCCCCCNC(=O)C4(C)CCc5c(C)c(O)c(C)c(C)c5O4)c2c1)CCCC3 (stereo not given)	0.7	6.72	59	–
OCCCCCCCCNc1c2c(nc3cc(Cl)ccc13)CCCC2	–	–	–	Retention_time (Liver microsome [1]): 6.56 min
Cc1c(C)c2c(c(C)c1O)CCC(C)(C(=O)NCCCCNc1c3c(nc4cc(Cl)ccc14)CCCC3)O2 (stereo not given)	0.09	0.15	50.8	–
Cc1c(C)c2c(c(C)c1O)CCC(C)(C(=O)NCCCCCCCCNc1c3c(nc4cc(Cl)ccc14)CCCC3)O2 (stereo not given)	0.54	0.08	44.1	remaining at 1 h, 1 ug/ml [3]: 58.2%; inhibition (Acetylcholinesterase [4]): Active; LD50 at 48 h [5]: > 500 mg/kg; Retention_time (Liver microsome [1]): 7.52 min; remaining at 1 h, 20 ug/ml [6]: 85.5%; Ki (Acetylcholinesterase [7]): 0.0495 µM; Activity (HepG2 [8]): Non-toxic; remaining at 1 h, 50 ug/ml [9]: 85.4%; Papp at 18 h, 100 µM [10]: 5 ×10⁻⁶ cm/s; Drug metabolism (Liver microsome [11]): 3.1%
COc1ccc2nc3c(c(NCCNC(=O)C4(C)CCc5c(C)c(O)c(C)c(C)c5O4)c2c1)CCCC3 (stereo not given)	1.3	4.36	95.9	IC50 at 24 h (in vitro): 4.9 µM
Cc1c(C)c2c(c(C)c1O)CCC(C)(C(=O)NCCCNc1c3c(nc4ccccc14)CCCC3)O2 (stereo not given)	0.08	0.26	51.3	IC50 at 24 h (in vitro): 13.2 µM
Cc1c(C)c2c(c(C)c1O)CCC(C)(C(=O)NCCCCCCNc1c3c(nc4ccccc14)CCCC3)O2 (stereo not given)	0.19	0.36	61.8	IC50 at 24 h (in vitro): 2 µM
COc1ccc2nc3c(c(NCCCCCNC(=O)C4(C)CCc5c(C)c(O)c(C)c(C)c5O4)c2c1)CCCC3 (stereo not given)	0.4	13.3	62.7	–
Cc1c(C)c2c(c(C)c1O)CCC(C)(C(=O)NCCCCCCCCNc1c3c(nc4ccccc14)CCCC3)O2 (stereo not given)	0.16	0.69	66.5	–
Cc1c(C)c2c(c(C)c1O)CCC(C)(C(=O)O)O2 (stereo not given) [TROLOX]	> 1000	186	16.2	Activity (HepG2 [12]): Non-toxic
COc1ccc2nc3c(c(NCCCCNC(=O)C4(C)CCc5c(C)c(O)c(C)c(C)c5O4)c2c1)CCCC3 (stereo not given)	0.29	7.21	> 100	–
Cc1c(C)c2c(c(C)c1O)CCC(C)(C(=O)NCCNc1c3c(nc4cc(Cl)ccc14)CCCC3)O2 (stereo not given)	0.02	0.21	67.8	–
CC1=C(C)C(=O)C(CCC(C)(O)C(=O)NC(O)CCCCCCCNc2c3c(nc4cc(Cl)ccc24)CCCC3)=C(C)C1=O (stereo not given)	–	–	–	Retention_time (Liver microsome [1]): 7.1 min
COc1ccc2nc3c(c(NCCCCCCNC(=O)C4(C)CCc5c(C)c(O)c(C)c(C)c5O4)c2c1)CCCC3 (stereo not given)	0.69	6.61	58.8	–
O=C(O)CCCCCCCNc1c2c(nc3cc(Cl)ccc13)CCCC2	–	–	–	Retention_time (Liver microsome [1]): 6.52 min
Cc1c(C)c2c(c(C)c1O)CCC(C)(C(=O)NCCCNc1c3c(nc4cc(Cl)ccc14)CCCC3)O2 (stereo not given)	0.77	0.08	48.8	–
COc1ccc2nc3c(c(N)c2c1)CCCC3	–	–	> 100	IC50 at 24 h (in vitro): 11.5 µM
Cc1c(C)c2c(c(C)c1O)CCC(C)(C(=O)NCCCCCNc1c3c(nc4ccccc14)CCCC3)O2 (stereo not given)	0.56	0.62	65.6	IC50 at 24 h (in vitro): 8.7 µM
Nc1c2c(nc3cc(Cl)ccc13)CCCC2	–	–	> 100	LD50 at 48 h [5]: 7.5 mg/kg; IC50 at 24 h (in vitro): 7.13 µM
Cc1c(C)c2c(c(C)c1O)CCC(C)(C(=O)NCCCCNc1c3c(nc4ccccc14)CCCC3)O2 (stereo not given)	0.08	0.95	> 100	–
COc1ccc2nc3c(c(NCCCNC(=O)C4(C)CCc5c(C)c(O)c(C)c(C)c5O4)c2c1)CCCC3 (stereo not given)	0.62	1.54	> 100	Activity (HepG2 [13]): Non-toxic
Cc1c(C)c2c(c(C)c1O)CCC(C)(C(=O)NCCCCCCCNc1c3c(nc4ccccc14)CCCC3)O2 (stereo not given)	0.13	0.69	> 100	–
COc1ccc2nc3c(c(NCCCCCCCCNC(=O)C4(C)CCc5c(C)c(O)c(C)c(C)c5O4)c2c1)CCCC3 (stereo not given)	1.53	3.48	> 100	IC50 at 24 h (in vitro): 0.92 µM
Cc1c(C)c2c(c(C)c1O)CCC(C)(C(=O)NCCCCCCCNc1c3c(nc4cc(Cl)ccc14)CCCC3)O2 (stereo not given)	0.7	0.08	44.2	Activity (HepG2 [8]): Non-toxic
Cc1c(C)c2c(c(C)c1O)CCC(C)(C(=O)NCCCCCNc1c3c(nc4cc(Cl)ccc14)CCCC3)O2 (stereo not given)	0.13	0.12	49.8	–
Cc1c(C)c2c(c(C)c1O)CCC(C)(C(=O)NCCCCCCNc1c3c(nc4cc(Cl)ccc14)CCCC3)O2 (stereo not given)	0.4	0.1	48.8	IC50 at 24 h (in vitro): 0.7 µM
Cc1c(C)c2c(c(C)c1O)CCC(C)(C(=O)NCCNc1c3c(nc4ccccc14)CCCC3)O2 (stereo not given)	0.06	6.97	> 100	Papp at 18 h, 100 µM [10]: 4.4 ×10⁻⁶ cm/s
